Experiments:
CZ-1 cells = test: MTT detection of cell viability, BTZ-sensitive cell line; format: cell-based, human
Protocol: (§1) CZ-1 cells can be obtained from Hou Jian Laboratory of Shanghai Changzheng Hospital (Hou J, Lin F Y, Zhang B, Zhang L Z, Ding S Q, Establishment and biological characteristics of human multiple myeloma cell line CZ-1. Chinese Medical Journal [2004, 117(1):115-119]); CZ-1/R cell lines was constructed by the inventor's Laboratories, and can be obtained from the inventor's laboratory (http://www.sibcb.ac.cn/PI.asp?id=129).
(§2) Plates were incubated for 24-72 hours. To each well was added 20 ul MTT (3-(4,5-dimethyl-2-thiazole)-2,5-diphenyl tetrazolium bromide) solution, culture was continued for another 4 hrs. To each well was added 150 ul of dimethyl sulfoxide, shaken on a shaker at low speed for 10 mins for thoroughly dissolving the crystals. Absorbance of each well was measured on an enzyme-linked immune detector at OD 490 nm (570 nm).

CZ-1/R cells = test: MTT detection of cell viability, BTZ-resistant cell line; format: cell-based, human
Protocol: as §1, §2

[1] = BTZ in combination with 17-AAG, FIG. 9
[2] = BTZ in combination with C75, FIG. 9

Measured: killing effects (MTT)

CC(C)C[C@H](NC(=O)[C@H](Cc1ccccc1)NC(=O)c1cnccn1)B(O)O [BTZ, Bortezomib]
significant killing effects: CZ-1 cells; [1] | CZ-1 cells; [2] | CZ-1/R cells; [1] | CZ-1/R cells; [2]
